The nature of data set [1]: Cytotoxic activity against rat skeletal myoblast L6 cells (Alamar Blue). Type of data set: cell-based. To be noted: rat, L6 cells (rat skeletal muscle line); cytotoxicity, 6 days incubation + 8 hours Alamar Blue. Here is the method: (§1) Cytotoxicity against mammalian cells was assessed using microtitre plates. Briefly, L6 cells (a rat skeletal muscle line) were seeded at 1 × 10^4 mL^–1 in 200 μL of growth medium containing 7 different compound concentrations in a range previously established to encompass both the IC50 and IC90 values. The plates were incubated for 6 days at 37 °C and 20 μL Alamar Blue (Biosource UK Ltd) was then added to each well. After an additional 8 hours incubation, the fluorescence was determined using a FLUOstar Omega fluorescent plate reader (BMG Labtech). Inhibition of growth was calculated by comparison with control values and IC50 and IC90 values were determined in triplicate using linear regression analysis.

Data set [2] relates to L6 cells. Described as above. The class given is cell-based. As to conditions: ratio of IC50 values obtained with L6 cells and T. brucei. Here is the method:
as §1

The test system of data set [3] is Bloodstream form T. brucei (strain 427). The data set can be described thus: Trypanocidal activity against bloodstream form T. brucei (Alamar Blue growth inhibition). To be noted: 48 hours + overnight Alamar Blue; for IC50: concentration that inhibits growth by 50%; for IC90: concentration that inhibits growth by 90%. The class given is cell-based, Trypanosoma brucei. The procedure: Bloodstream form T. brucei (strain 427) were cultured at 37 °C in modified Iscove's medium. Trypanocidal activity was assessed by growing parasites in microtiter plates in the presence of various drug concentrations. […] The plates were incubated for 48 hours at 37 °C and 20 μL Alamar Blue was then added to each well. After an additional overnight incubation, the fluorescence was determined. Inhibition of growth was calculated by comparison with control values and IC50 and IC90 values were determined in triplicate using linear regression analysis.

Where a name gives a salt, the structure may show the parent alone.

With `NCCc1csc(-c2ccc(C34CC5CC(CC(C5)C3)C4)cc2)n1` (as salt: hydrochloride) [Compound 2a, 2-{2-[4-(1-Tricyclo[3.3.1.1^3,7]decyl)phenyl]thiazol-4-yl}ethan-1-amine], the melting point was 225 °C (dec.).

As to `CN(C)CCc1csc(-c2ccc(F)c(C34CC5CC(CC(C5)C3)C4)c2)n1` [Compound 1c, 2-{2-[3-(1-Tricyclo[3.3.1.1^3,7]decyl)-4-fluorophenyl]thiazol-4-yl}-N,N-dimethylethyl-1-amine], the IC50 in data set [1] was 1.53 ± 0.09 µM. The “S.I. (selectivity index)” value in data set [2] was determined as 1.9. Moreover, in data set [3] (Trypanosoma brucei), the IC50 is 0.79 ± 0.02 µM and the 90% effect concentration (IC90) amounted to 1.03 ± 0.01 µM.

For `CCCC(=O)NCCc1csc(-c2ccc(F)c(C34CC5CC(CC(C5)C3)C4)c2)n1` (as salt: fumarate) [Compound 1e, N-{2-[2-(3-(1-Tricyclo[3.3.1.1^3,7]decyl)-4-fluorophenyl)thiazol-4-yl]ethyl}butylamide], the melting point lay in the range of 291 to 293 °C.

With `O=C(NCCc1csc(-c2ccc(F)c(C34CC5CC(CC(C5)C3)C4)c2)n1)N1CCCC1` [Compound 1i, N-(2-(2-(3-(1-Tricyclo[3.3.1.1^3,7]decyl)-4-fluorophenyl)thiazol-4-yl)ethyl)pyrrolidin-1-yl-carboxamide], the 50% inhibitory concentration (IC50) in data set [3] (Trypanosoma brucei) was above 20 µM.

Compound `O=C(NCCc1csc(-c2ccc(F)c(C34CC5CC(CC(C5)C3)C4)c2)n1)c1ccc(F)cc1` (as salt: fumarate) [Compound 1g, N-{2-[2-(3-(1-Tricyclo[3.3.1.1^3,7]decyl)-4-fluorophenyl)thiazol-4-yl]ethyl}-4-fluorobenzamide] registered a melting point of 226 to 227 °C.

In turn, `N#CCc1csc(-c2ccc(C34CC5CC(CC(C5)C3)C4)cc2)n1` [Compound 2e, 2-{2-[4-(1-Tricyclo[3.3.1.1^3,7]decyl)phenyl]thiazol-4-yl}acetonitrile] returned a melting point of 159 to 160 °C. Besides, in data set [3] (Trypanosoma brucei), the 50% inhibitory concentration (IC50) is above 20 µM.

On to `CN(C)CCc1csc(-c2ccc(C34CC5CC(CC(C5)C3)C4)cc2)n1` (as salt: fumarate) [Compound 2c, 2-{2-[4-(1-Tricyclo[3.3.1.1^3,7]decyl)phenyl]thiazol-4-yl}-N,N-dimethylethan-1-amine], for which the melting point is 302 °C (dec.).

In the case of `CC(=O)NCCc1csc(-c2ccc(C34CC5CC(CC(C5)C3)C4)cc2)n1` (as salt: fumarate) [Compound 2d, N-{2-[2-(4-(1-Tricyclo[3.3.1.1^3,7]decyl)phenyl)thiazol-4-yl]ethyl}acetamide], the melting point was 164 to 166 °C.

The compound `CN(C)CCc1csc(-c2ccc(F)c(C34CC5CC(CC(C5)C3)C4)c2)n1` (as salt: hydrochloride) [Compound 1c, 2-{2-[3-(1-Tricyclo[3.3.1.1^3,7]decyl)-4-fluorophenyl]thiazol-4-yl}-N,N-dimethylethyl-1-amine] yielded a melting point of 280 to 282 °C.

`O=C(NCCc1csc(-c2ccc(F)c(C34CC5CC(CC(C5)C3)C4)c2)n1)c1ccccc1` [Compound 1f, N-{2-[2-(3-(1-Tricyclo[3.3.1.1^3,7]decyl)-4-fluorophenyl)thiazol-4-yl]ethyl}benzamide]: the half-inhibitory concentration (IC50) in data set [3] (Trypanosoma brucei) is above 20 µM.

With “1-{2-[4-(1-Tricyclo[3.3.1.1^3,7]decyl)phenyl]thiazol-4-yl}guanidine [Compound 3e]”, in data set [3], the IC50 is around 10 µM.

In turn, `CC(=O)NCCc1csc(-c2ccc(F)c(C34CC5CC(CC(C5)C3)C4)c2)n1` (as salt: fumarate) [Compound 1d, N-{2-[2-(3-(1-Tricyclo[3.3.1.1^3,7]decyl)-4-fluorophenyl]thiazol-4-yl]ethyl}acetamide] showed a melting point of 143 to 145 °C.

For `O=C(NCCc1csc(-c2ccccc2)n1)C12CC3CC(CC(C3)C1)C2` [Compound 4a, N-(2-(2-Phenylthiazol-4-yl)ethyl)(1-tricyclo[3.3.1.1^3,7]decane)carboxamide], the melting point is 135 to 136 °C. Also, in data set [3] (Trypanosoma brucei), the concentration for half-maximal inhibition (IC50) turned out to be 12.2 ± 0.8 µM and the IC90 is 18.7 ± 0.4 µM.

In turn, `O=C(NCCc1nc(-c2ccccc2)cs1)C12CC3CC(CC(C3)C1)C2` [Compound 4c, N-[2-(4-Phenylthiazol-2-yl)ethyl](1-tricyclo[3.3.1.1^3,7]decane)carboxamide] yielded a melting point of 107 to 108 °C. In data set [3] (Trypanosoma brucei), the 50% inhibitory concentration (IC50) turned out to be 9.82 ± 0.22 µM and the concentration for an effect of 90% (IC90) stood at 13.1 ± 0.2 µM.

`N#CSCc1csc(-c2ccc(C34CC5CC(CC(C5)C3)C4)cc2)n1` [Compound 2f, 2-[4-(1-Tricyclo[3.3.1.1^3,7]decyl)phenyl]-4-(thiocyanatemethyl)thiazole] registered a melting point of 169 to 170 °C. Further, the IC50 in data set [3] (Trypanosoma brucei) was around 10 µM.

Turning to `CC(=O)NCCc1csc(-c2ccc(F)c(C34CC5CC(CC(C5)C3)C4)c2)n1` [Compound 1d, N-{2-[2-(3-(1-Tricyclo[3.3.1.1^3,7]decyl)-4-fluorophenyl]thiazol-4-yl]ethyl}acetamide], in data set [3] (Trypanosoma brucei), the 50% inhibitory concentration (IC50) worked out at 15.3 ± 0.2 µM and the IC90 was found to be 18.1 ± 0.2 µM.

Turning to `CN(C)CCc1csc(-c2ccc(C34CC5CC(CC(C5)C3)C4)cc2)n1` [Compound 2c, 2-{2-[4-(1-Tricyclo[3.3.1.1^3,7]decyl)phenyl]thiazol-4-yl}-N,N-dimethylethan-1-amine], in data set [3] (Trypanosoma brucei), the half-maximal inhibitory concentration (IC50) is 1.27 ± 0.07 µM and the concentration for an effect of 90% (IC90) came out at 1.6 ± 0.22 µM.

`CNCCc1csc(-c2ccc(F)c(C34CC5CC(CC(C5)C3)C4)c2)n1` (as salt: hydrochloride) [Compound 1b, 2-{2-[3-(1-Tricyclo[3.3.1.1^3,7]decyl)-4-fluorophenyl]thiazol-4-yl}-N-methylethan-1-amine] had a melting point of 221 to 223 °C.

As to `NCCc1csc(-c2ccc(F)c(C34CC5CC(CC(C5)C3)C4)c2)n1` (as salt: hydrochloride) [Compound 1a, 2-{2-[3-(1-Tricyclo[3.3.1.1^3,7]decyl)-4-fluorophenyl]thiazol-4-yl}ethan-1-amine], the melting point was 246 to 248 °C.

Consider `CNCCc1csc(-c2ccc(C34CC5CC(CC(C5)C3)C4)cc2)n1` (as salt: fumarate) [Compound 2b, 2-{2-[4-(1-Tricyclo[3.3.1.1^3,7]decyl)phenyl]thiazol-4-yl}-N-methylethan-1-amine], for which the melting point fell in the range of 147 to 149 °C.

Consider `O=C(NCCc1csc(-c2ccc(F)c(C34CC5CC(CC(C5)C3)C4)c2)n1)N1CCCC1` (as salt: fumarate) [Compound 1i, N-(2-(2-(3-(1-Tricyclo[3.3.1.1^3,7]decyl)-4-fluorophenyl)thiazol-4-yl)ethyl)pyrrolidin-1-yl-carboxamide], for which the melting point was 301 °C (dec.).

As for `CCCC(=O)NCCc1csc(-c2ccc(F)c(C34CC5CC(CC(C5)C3)C4)c2)n1` [Compound 1e, N-{2-[2-(3-(1-Tricyclo[3.3.1.1^3,7]decyl)-4-fluorophenyl)thiazol-4-yl]ethyl}butylamide], the half-maximal inhibitory concentration (IC50) in data set [3] (Trypanosoma brucei) is above 25 µM.

Take `Br.NCc1nc(-c2ccc(C34CC5CC(CC(C5)C3)C4)cc2)cs1` [Compound 3b, 2-{4-[4-(1-Tricyclo[3.3.1.1^3,7]decyl)phenyl]thiazol-2-yl}methanamine difumarate]: the melting point was 172 °C (dec.). Moreover, in data set [1], the half-inhibitory concentration (IC50) was determined as 12.6 ± 0.9 µM. For the same compound, in data set [3] (Trypanosoma brucei), the IC50 is 9.76 ± 0.77 µM and the IC90 turned out to be 12.8 ± 0.2 µM.

The compound `OCCc1csc(-c2ccc(C34CC5CC(CC(C5)C3)C4)cc2)n1` [Compound 2g, 2-{2-[4-(1-Tricyclo[3.3.1.1^3,7]decyl)phenyl]thiazol-4-yl}ethan-1-ol] came in with a melting point of 93 to 94 °C. Also, the concentration for half-maximal inhibition (IC50) in data set [3] (Trypanosoma brucei) was around 10 µM.

Regarding `CC1(C)[C@@H]2CC[C@]1(CS(=O)(=O)NCCc1csc(-c3ccccc3)n1)C(=O)C2` [Compound 4b, 1-((1R,4R)-7,7-Dimethyl-2-oxobicyclo[2.2.1]hept-1-yl)-N-(2-(2-phenylthiazol-4-yl)ethyl)methanesulfonamide], in data set [3] (Trypanosoma brucei), the 50% inhibitory concentration (IC50) came out at 20.6 ± 0.7 µM and the IC90 is 31.1 ± 0.3 µM.

Consider `O=C(NCCc1csc(-c2ccc(F)c(C34CC5CC(CC(C5)C3)C4)c2)n1)c1ccc(F)cc1` [Compound 1g, N-{2-[2-(3-(1-Tricyclo[3.3.1.1^3,7]decyl)-4-fluorophenyl)thiazol-4-yl]ethyl}-4-fluorobenzamide], for which, in data set [3] (Trypanosoma brucei), the concentration for half-maximal inhibition (IC50) is above 20 µM.

Consider `Cc1ccoc1C(=O)NCCc1csc(-c2ccc(F)c(C34CC5CC(CC(C5)C3)C4)c2)n1` [Compound 1h, N-{2-[2-(3-(1-Tricyclo[3.3.1.1^3,7]decyl)-4-fluorophenyl)thiazol-4-yl]ethyl}-3-methylfuran-2-ylcarboxamide], for which the IC50 in data set [3] (Trypanosoma brucei) is above 20 µM.

As to `[N-]=[N+]=NCCc1csc(-c2ccc(C34CC5CC(CC(C5)C3)C4)cc2)n1` [Compound 2h, 2-[4-(1-Tricyclo[3.3.1.1^3,7]decyl)phenyl]-4-(2-azidoethyl)thiazole], the IC50 in data set [3] (Trypanosoma brucei) was above 20 µM.

As for `CC(=O)NCCc1csc(-c2ccc(C34CC5CC(CC(C5)C3)C4)cc2)n1` [Compound 2d, N-{2-[2-(4-(1-Tricyclo[3.3.1.1^3,7]decyl)phenyl)thiazol-4-yl]ethyl}acetamide], the IC50 in data set [3] (Trypanosoma brucei) is above 20 µM.

For `O=C(NCCc1csc(-c2ccc(F)c(C34CC5CC(CC(C5)C3)C4)c2)n1)c1ccccc1` (as salt: fumarate) [Compound 1f, N-{2-[2-(3-(1-Tricyclo[3.3.1.1^3,7]decyl)-4-fluorophenyl)thiazol-4-yl]ethyl}benzamide], the melting point is 305 °C (dec.).

Source of the values: article PMC7522794, “Synthesis and evaluation of novel 2,4-disubstituted arylthiazoles against T. brucei” (RSC Medicinal Chemistry, 2019).
